pEC50: −log10 of the molar value.
Target: PB2 (Influenza A virus, UniProt P03428)
Test: biochemical
Assay type: binding

PB2, sequence (P03428 whole entry, looked up): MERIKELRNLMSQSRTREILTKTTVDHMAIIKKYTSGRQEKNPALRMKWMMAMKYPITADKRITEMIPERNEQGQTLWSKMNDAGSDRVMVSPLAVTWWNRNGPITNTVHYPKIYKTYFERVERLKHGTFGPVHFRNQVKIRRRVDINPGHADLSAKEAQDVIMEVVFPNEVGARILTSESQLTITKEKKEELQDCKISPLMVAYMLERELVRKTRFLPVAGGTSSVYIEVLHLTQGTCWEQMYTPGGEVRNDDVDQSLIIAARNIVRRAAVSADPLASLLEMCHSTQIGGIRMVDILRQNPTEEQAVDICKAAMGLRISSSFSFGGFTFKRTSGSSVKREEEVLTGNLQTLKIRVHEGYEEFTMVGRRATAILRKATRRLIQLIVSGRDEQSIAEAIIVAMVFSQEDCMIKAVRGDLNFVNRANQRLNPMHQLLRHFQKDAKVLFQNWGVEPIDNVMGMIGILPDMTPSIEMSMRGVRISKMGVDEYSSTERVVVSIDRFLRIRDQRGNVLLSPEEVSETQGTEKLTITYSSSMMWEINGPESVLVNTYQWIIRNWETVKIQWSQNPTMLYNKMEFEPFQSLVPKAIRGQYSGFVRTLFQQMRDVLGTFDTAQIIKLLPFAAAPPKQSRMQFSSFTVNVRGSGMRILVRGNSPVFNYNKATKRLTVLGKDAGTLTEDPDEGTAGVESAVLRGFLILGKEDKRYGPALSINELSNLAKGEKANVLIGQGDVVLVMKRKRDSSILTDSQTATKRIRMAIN

## O=C(NCc1ccccn1)OCc1ccnc(C(=O)N[C@H]2CCC[C@@H](Nc3nc(-c4c[nH]c5ncc(F)cc45)ncc3F)C2)c1 [Compound A96]
  pEC50: 4.60 to 5.30

## O=C(NCc1ccc(C(=O)O)cc1)OCc1ccnc(C(=O)N[C@@H]2CCC[C@H](Nc3nc(-c4c[nH]c5ncc(F)cc45)ncc3F)C2)c1 [Compound A97]
  pEC50: > 5.30

## O=C(NCc1cccc(C(=O)O)c1)OCc1ccnc(C(=O)N[C@@H]2CCC[C@H](Nc3nc(-c4c[nH]c5ncc(F)cc45)ncc3F)C2)c1 [Compound A98]
  pEC50: > 5.30

## O=C(NCC(O)CO)OCc1ccnc(C(=O)N[C@H]2CCC[C@@H](Nc3nc(-c4c[nH]c5ncc(F)cc45)ncc3F)C2)c1 (stereo partly shown) [Compound A99]
  pEC50: > 5.30

## O=C(NCCc1ccc(Oc2ccccc2)cc1)OCc1ccnc(C(=O)N[C@H]2CCC[C@@H](Nc3nc(-c4c[nH]c5ncc(F)cc45)ncc3F)C2)c1 [Compound A100]
  pEC50: < 4.00

## O=C(NCCc1ccc(F)cc1)OCc1ccnc(C(=O)N[C@H]2CCC[C@@H](Nc3nc(-c4c[nH]c5ncc(F)cc45)ncc3F)C2)c1 [Compound A101]
  pEC50: < 4.00

## O=C(NCc1ccc(Oc2ccccc2)cc1)OCc1ccnc(C(=O)N[C@H]2CCC[C@@H](Nc3nc(-c4c[nH]c5ncc(F)cc45)ncc3F)C2)c1 [Compound A102]
  pEC50: < 4.00

## O=C(N[C@H]1CCC[C@@H](Nc2nc(-c3c[nH]c4ncc(F)cc34)ncc2F)C1)c1cc(COCCCCCOCc2ccncc2)ccn1 [Compound A103]
  pEC50: < 4.00

## O=C(NCC1CCCO1)OCc1ccnc(C(=O)N[C@H]2CCC[C@@H](Nc3nc(-c4c[nH]c5ncc(F)cc45)ncc3F)C2)c1 (stereo partly shown) [Compound A106]
  pEC50: 4.60 to 5.30

## O=C(O)CNC(=O)OCc1ccnc(C(=O)N[C@@H]2CCC[C@H](Nc3nc(-c4c[nH]c5ncc(F)cc45)ncc3F)C2)c1 [Compound A107]
  pEC50: > 5.30

## O=C(NCc1ccncc1)OCc1ccnc(C(=O)N[C@H]2CCC[C@@H](Nc3nc(-c4c[nH]c5ncc(F)cc45)ncc3F)C2)c1 [Compound A108]
  pEC50: 4.60 to 5.30

## O=C(NCCc1cccc(Oc2ccccc2)c1)OCc1ccnc(C(=O)N[C@H]2CCC[C@@H](Nc3nc(-c4c[nH]c5ncc(F)cc45)ncc3F)C2)c1 [Compound A109]
  pEC50: < 4.00

## O=C(O)CNCCNC(=O)OCc1ccnc(C(=O)N[C@@H]2CCC[C@H](Nc3nc(-c4c[nH]c5ncc(F)cc45)ncc3F)C2)c1 [Compound A110]
  pEC50: 4.60 to 5.30

## CCNC(=O)CNC(=O)OCc1ccnc(C(=O)N[C@H]2CCC[C@@H](Nc3nc(-c4c[nH]c5ncc(F)cc45)ncc3F)C2)c1 [Compound A111]
  pEC50: 4.60 to 5.30

## CCOc1ccc(CNC(=O)OCc2ccnc(C(=O)N[C@H]3CCC[C@@H](Nc4nc(-c5c[nH]c6ncc(F)cc56)ncc4F)C3)c2)cc1 [Compound A112]
  pEC50: < 4.00

## CCOCCOCc1cc(-c2ccnc(C(=O)N[C@H]3CCC[C@@H](Nc4nc(-c5c[nH]c6ncc(F)cc56)ncc4F)C3)c2)ccc1F [Compound A113]
  pEC50: < 4.00

## O=C(NCCOCC(F)(F)F)OCc1ccnc(C(=O)N[C@H]2CCC[C@@H](Nc3nc(-c4c[nH]c5ncc(F)cc45)ncc3F)C2)c1 [Compound A114]
  pEC50: 4.00 to 4.30

## O=COCCOCCNC(=O)OCc1ccnc(C(=O)N[C@H]2CCC[C@@H](Nc3nc(-c4c[nH]c5ncc(F)cc45)ncc3F)C2)c1 [Compound A115]
  pEC50: > 5.30

## CC(C)NCCNC(=O)OCc1ccnc(C(=O)N[C@H]2CCC[C@@H](Nc3nc(-c4c[nH]c5ncc(F)cc45)ncc3F)C2)c1 [Compound A116]
  pEC50: 4.60 to 5.30

## CN1CCC(CNC(=O)OCc2ccnc(C(=O)N[C@H]3CCC[C@@H](Nc4nc(-c5c[nH]c6ncc(F)cc56)ncc4F)C3)c2)CC1 [Compound A117]
  pEC50: 4.60 to 5.30

## O=C(O)COCCNC(=O)OCc1ccnc(C(=O)N[C@@H]2CCC[C@H](Nc3nc(-c4c[nH]c5ncc(F)cc45)ncc3F)C2)c1 [Compound A118]
  pEC50: > 5.30

## O=C(NCc1cccc(Oc2ccccc2)c1)OCc1ccnc(C(=O)N[C@H]2CCC[C@@H](Nc3nc(-c4c[nH]c5ncc(F)cc45)ncc3F)C2)c1 [Compound A119]
  pEC50: < 4.00

— patent US12357631B2 (priority 2018, dated 2025)
